Measurements reported in patent US12421225B2, “Heteroaromatic amide derivative and medicament containing the same” (KAKEN PHARMACEUTICAL CO., LTD., priority 2018, dated 2025).
Counter-ions that a name gives are not always drawn.

Legend:
human Nav1.5 = human Nav1.5 (Homo sapiens (Human), UniProt Q14524); assay: Human Nav1.5 inhibitory activity evaluation (automated patch clamp QPatch16X, HEK293 cells stably expressing human Nav1.5); assay type: cell-based
Method in brief: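 IC50 derived from concentration-response of inward current at the 20th of 20 action-potential-mimicking pulses (holding −80 mV, leak corrected with −100 mV step). HEK293 cells stably expressing human Nav1.5, room temperature, extracellular pH 7.4, intracellular CsF-based pH 7.3, 0.1% DMSO.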

male ICR mice = assay: Effect on acute pain (capsaicin-induced pain-related behavior, hind paw); assay type: in vivo
Procedure: Test Example 3: Effect on Acute Pain
Six-week old male ICR mice were used for the test. Test compounds were orally administered at 1-10 mg/kg and the mice were habituated to a clear observation cage for 60 minutes. The mice were lightly restrained under no anesthesia and 20 μL of 80 μg/mL (0.8% ethanol-saline) capsaicin solution was injected subcutaneously into the plantar surface of rihgt hind paw of mice. The mice were returned to the observation cage and, from just after that, the duration of pain-related behavior (licking, shaking) occurring in the right hind limb was measured as the reaction time for 5 minutes.
The inhibition rate of the test compound was determined by the following calculation formula. Test compound inhibition rate (%)=100×[1−(response time of test compound administered group/response time of vehicle control group)]

human Nav1.7 = human Nav1.7 (Homo sapiens (Human), UniProt Q15858); assay: Human Nav1.7 inhibitory activity evaluation (automated patch clamp QPatch16X, HEK293A cells stably expressing human Nav1.7 and human Navβ1); assay type: cell-based
Method in brief: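 IC50 calculated from the concentration-response of inward current evoked by the second −10 mV, 50 ms depolarisation, which follows a 15 s conditioning step at roughly 30-40% inactivation and a 100 ms −120 mV interval. Cells: HEK293A expressing human Nav1.7/Navβ1, automated patch clamp, room temperature, 0.1% DMSO final.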

[1] = HEK293 cells stably expressing human Nav1.5, automated patch clamp QPatch16X
[2] = HEK293A cells stably expressing human Nav1.7 and human Navβ1, automated patch clamp QPatch16X
[3] = human Nav1.5, automated patch clamp
[4] = human Nav1.7, automated patch clamp

human Nav1.5, sequence (Q14524 whole entry): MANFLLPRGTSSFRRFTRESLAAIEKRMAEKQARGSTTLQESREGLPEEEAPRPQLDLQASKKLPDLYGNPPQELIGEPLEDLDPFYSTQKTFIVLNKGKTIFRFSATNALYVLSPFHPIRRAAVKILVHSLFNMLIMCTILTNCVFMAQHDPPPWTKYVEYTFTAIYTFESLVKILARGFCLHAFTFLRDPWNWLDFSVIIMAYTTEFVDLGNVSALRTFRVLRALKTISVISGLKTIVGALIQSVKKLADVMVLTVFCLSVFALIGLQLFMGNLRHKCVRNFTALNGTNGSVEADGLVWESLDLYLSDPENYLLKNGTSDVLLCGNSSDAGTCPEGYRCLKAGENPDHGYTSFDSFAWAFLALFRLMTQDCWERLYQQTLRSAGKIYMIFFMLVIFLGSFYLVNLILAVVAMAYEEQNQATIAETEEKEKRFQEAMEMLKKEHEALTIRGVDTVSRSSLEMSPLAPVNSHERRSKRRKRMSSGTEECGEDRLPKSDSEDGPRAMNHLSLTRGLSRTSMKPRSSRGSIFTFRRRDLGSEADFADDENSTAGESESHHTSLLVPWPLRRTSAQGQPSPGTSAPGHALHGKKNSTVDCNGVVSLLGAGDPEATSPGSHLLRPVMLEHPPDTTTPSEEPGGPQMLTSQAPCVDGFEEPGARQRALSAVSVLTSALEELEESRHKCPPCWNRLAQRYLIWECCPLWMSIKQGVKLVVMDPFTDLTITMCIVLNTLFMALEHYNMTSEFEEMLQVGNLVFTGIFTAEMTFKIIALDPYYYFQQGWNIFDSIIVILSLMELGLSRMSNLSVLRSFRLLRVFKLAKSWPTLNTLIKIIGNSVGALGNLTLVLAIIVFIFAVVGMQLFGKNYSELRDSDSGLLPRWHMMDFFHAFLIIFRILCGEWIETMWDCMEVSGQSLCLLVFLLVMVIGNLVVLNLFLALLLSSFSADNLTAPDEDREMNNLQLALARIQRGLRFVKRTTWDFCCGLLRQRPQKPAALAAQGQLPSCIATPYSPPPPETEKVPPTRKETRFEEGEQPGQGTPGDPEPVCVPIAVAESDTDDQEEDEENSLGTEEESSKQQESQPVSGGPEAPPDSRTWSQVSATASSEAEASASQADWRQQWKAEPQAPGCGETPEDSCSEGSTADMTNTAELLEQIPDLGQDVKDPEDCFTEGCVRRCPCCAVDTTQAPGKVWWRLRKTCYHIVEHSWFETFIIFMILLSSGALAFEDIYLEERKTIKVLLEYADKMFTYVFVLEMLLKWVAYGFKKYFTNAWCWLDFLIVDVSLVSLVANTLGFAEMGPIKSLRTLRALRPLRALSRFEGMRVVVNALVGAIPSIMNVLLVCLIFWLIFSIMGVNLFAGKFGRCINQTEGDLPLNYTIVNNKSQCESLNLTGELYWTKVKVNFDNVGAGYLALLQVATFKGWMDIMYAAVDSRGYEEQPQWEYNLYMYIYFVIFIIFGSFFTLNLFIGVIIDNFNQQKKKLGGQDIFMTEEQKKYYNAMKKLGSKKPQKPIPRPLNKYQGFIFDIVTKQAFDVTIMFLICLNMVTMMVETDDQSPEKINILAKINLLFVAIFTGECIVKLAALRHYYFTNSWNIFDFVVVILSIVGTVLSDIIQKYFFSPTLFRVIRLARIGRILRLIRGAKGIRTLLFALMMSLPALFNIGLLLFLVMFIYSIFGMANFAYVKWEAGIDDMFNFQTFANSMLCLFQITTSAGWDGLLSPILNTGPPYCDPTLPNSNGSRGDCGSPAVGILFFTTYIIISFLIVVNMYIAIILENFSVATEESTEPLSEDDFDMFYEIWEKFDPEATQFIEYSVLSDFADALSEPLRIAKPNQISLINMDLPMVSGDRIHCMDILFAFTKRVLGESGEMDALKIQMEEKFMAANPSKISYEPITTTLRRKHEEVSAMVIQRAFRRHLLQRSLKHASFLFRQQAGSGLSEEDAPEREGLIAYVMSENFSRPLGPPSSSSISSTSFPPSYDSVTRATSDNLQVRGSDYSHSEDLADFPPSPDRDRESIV
human Nav1.7, sequence (Q15858 whole entry): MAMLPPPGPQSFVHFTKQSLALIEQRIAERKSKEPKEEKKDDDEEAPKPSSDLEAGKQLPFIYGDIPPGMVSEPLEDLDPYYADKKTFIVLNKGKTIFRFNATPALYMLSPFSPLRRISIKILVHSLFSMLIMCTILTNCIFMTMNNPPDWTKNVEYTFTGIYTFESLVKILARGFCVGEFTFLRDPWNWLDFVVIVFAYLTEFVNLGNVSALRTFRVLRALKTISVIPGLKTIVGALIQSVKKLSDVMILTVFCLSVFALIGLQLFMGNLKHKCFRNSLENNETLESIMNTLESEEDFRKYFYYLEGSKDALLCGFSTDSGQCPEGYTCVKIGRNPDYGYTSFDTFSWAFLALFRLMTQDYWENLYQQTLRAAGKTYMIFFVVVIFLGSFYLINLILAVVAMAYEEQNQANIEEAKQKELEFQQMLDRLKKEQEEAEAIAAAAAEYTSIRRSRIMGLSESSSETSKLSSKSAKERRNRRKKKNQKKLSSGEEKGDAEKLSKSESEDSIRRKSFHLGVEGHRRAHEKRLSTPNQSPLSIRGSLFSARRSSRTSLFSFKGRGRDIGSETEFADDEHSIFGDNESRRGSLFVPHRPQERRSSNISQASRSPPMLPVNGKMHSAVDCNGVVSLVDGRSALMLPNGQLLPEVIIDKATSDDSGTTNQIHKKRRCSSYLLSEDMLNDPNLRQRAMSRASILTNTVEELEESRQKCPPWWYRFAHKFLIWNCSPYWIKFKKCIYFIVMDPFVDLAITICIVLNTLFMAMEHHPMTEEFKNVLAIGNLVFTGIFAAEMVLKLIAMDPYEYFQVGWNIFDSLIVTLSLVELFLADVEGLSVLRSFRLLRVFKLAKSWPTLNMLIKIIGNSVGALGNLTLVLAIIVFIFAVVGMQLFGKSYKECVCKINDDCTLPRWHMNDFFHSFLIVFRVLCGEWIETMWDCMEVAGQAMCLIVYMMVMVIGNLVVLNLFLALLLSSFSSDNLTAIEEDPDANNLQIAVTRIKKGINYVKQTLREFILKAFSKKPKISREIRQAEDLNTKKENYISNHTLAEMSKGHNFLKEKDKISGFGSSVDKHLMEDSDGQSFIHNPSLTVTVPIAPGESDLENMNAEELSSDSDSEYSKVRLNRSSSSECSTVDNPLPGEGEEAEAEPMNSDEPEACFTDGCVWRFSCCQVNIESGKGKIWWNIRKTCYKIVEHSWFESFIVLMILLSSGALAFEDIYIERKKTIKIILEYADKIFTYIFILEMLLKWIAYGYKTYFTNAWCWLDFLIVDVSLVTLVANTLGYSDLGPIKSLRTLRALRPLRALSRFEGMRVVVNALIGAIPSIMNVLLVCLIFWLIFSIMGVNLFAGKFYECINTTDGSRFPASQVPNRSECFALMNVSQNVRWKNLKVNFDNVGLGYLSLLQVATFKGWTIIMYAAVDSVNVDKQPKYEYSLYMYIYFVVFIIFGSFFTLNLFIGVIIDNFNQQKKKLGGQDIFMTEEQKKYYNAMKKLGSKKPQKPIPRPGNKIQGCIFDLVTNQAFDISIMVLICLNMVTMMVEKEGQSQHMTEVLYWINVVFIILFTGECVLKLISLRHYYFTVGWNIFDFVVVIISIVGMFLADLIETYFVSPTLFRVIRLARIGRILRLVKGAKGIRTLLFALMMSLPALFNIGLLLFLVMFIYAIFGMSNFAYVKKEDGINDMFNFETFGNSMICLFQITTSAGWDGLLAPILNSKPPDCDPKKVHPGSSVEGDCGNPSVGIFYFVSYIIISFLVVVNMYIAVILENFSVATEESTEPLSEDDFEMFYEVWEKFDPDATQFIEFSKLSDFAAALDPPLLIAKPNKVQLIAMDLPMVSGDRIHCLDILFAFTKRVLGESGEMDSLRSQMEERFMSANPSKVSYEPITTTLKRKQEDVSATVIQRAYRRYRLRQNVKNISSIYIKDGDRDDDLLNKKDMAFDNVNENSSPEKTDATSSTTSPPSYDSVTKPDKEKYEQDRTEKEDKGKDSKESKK
human Nav1.7, sequence (Q07699 19-218 partner): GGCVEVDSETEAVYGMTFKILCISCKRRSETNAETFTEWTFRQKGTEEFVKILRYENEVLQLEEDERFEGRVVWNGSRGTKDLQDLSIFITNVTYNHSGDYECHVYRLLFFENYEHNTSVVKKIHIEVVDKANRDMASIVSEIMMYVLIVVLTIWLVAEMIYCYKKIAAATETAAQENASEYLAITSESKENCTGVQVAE

`COc1cc(C2CCn3nc(C(=O)N[C@H]4COc5ccc(C#N)cc5C4)cc3O2)ccn1` (single isomer, unassigned) [74 (isomer A)] was tested, and the IC50 (human Nav1.5; [1]) was no less than 3000 nM, the “Inhibition rate (%)” value (male ICR mice) was “A (Compounds with an inhibition rate of 30% or more are indicated by the letter “A”)” and the IC50 (human Nav1.7; [2]) was less than 1000 nM.
In the case of `CCCOCC1CCn2nc(C(=O)N[C@H]3COc4ccc(C#N)cc4C3)cc2O1` (single isomer, unassigned) [101 (isomer A)], the IC50 (human Nav1.5; [1]) is reported as no less than 3000 nM, the “Inhibition rate (%)” value (male ICR mice) is reported as “C (compounds with an inhibition rate of 10% or more but less than 20% is indicated by the letter “C”)” and the IC50 (human Nav1.7; [2]) is reported as less than 1000 nM.
In the case of `N#Cc1ccc2c(c1)C[C@@H](NC(=O)c1cc3n(n1)CCC(COCC(F)(F)F)O3)CO2` (single isomer, unassigned) [115 (isomer A)], the IC50 (human Nav1.5; [1]) is reported as no less than 3000 nM, the “Inhibition rate (%)” value (male ICR mice) is reported as “A (Compounds with an inhibition rate of 30% or more are indicated by the letter “A”)” and the IC50 (human Nav1.7; [2]) is reported as less than 10000 nM.
In the case of `O=C(N[C@H]1COc2ccc(COCC(F)(F)F)cc2C1)c1cc2n(n1)CCC(COCC(F)(F)F)O2` (single isomer, unassigned) [129 (isomer A)], the IC50 (human Nav1.5; [1]) is reported as no less than 3000 nM, the “Inhibition rate (%)” value (male ICR mice) is reported as “A (Compounds with an inhibition rate of 30% or more are indicated by the letter “A”)” and the IC50 (human Nav1.7; [2]) is reported as less than 1000 nM.
`N#Cc1ccc2c(c1)C[C@@H](NC(=O)c1cc3n(n1)CCC(CCOC(F)(F)F)O3)CO2` (single isomer, unassigned) [144 (isomer B)] was tested, and the IC50 (human Nav1.5; [3]) was no less than 3000 nM and the “Inhibition rate (%)” value (male ICR mice) was “A (Compounds with an inhibition rate of 30% or more are indicated by the letter “A”)”.
In the case of `COc1ncc(-c2ccc3c(c2)C[C@@H](NC(=O)c2cc4n(n2)CC(CCOCC2CC2)O4)CO3)cn1` (single isomer, unassigned) [204 (isomer A)], the IC50 (human Nav1.5; [3]) is reported as no less than 3000 nM, the “Inhibition rate (%)” value (male ICR mice) is reported as “A (Compounds with an inhibition rate of 30% or more are indicated by the letter “A”)” and the IC50 (human Nav1.7; [4]) is reported as less than 1000 nM.
`Cn1ccc(-c2ccc3c(c2)C[C@@H](NC(=O)c2cc4n(n2)CC(CCOC(F)(F)F)O4)CO3)n1` (single isomer, unassigned) [213 (isomer B)] was tested, and the “Inhibition rate (%)” value (male ICR mice) was “B (compounds with an inhibition rate of 20% or more and less than 30% are indicated by the letter “B”)”.
`N#Cc1ccc2c(c1)C[C@@H](NC(=O)c1cc3n(n1)CC(CCSCC(F)(F)F)O3)CO2` (single isomer, unassigned) [244 (isomer A)] was tested, and the IC50 (human Nav1.5; [3]) was 1000 to 3000 nM, the “Inhibition rate (%)” value (male ICR mice) was “B (compounds with an inhibition rate of 20% or more and less than 30% are indicated by the letter “B”)” and the IC50 (human Nav1.7; [4]) was less than 1000 nM.
`CCC1CCn2nc(C(=O)N[C@H]3COc4ccc(C#N)cc4C3)cc2O1` (single isomer, unassigned) [Example 92 (isomer A)] was tested, and the IC50 (human Nav1.5; [1]) was no less than 3000 nM, the “Inhibition rate (%)” value (male ICR mice) was “A (Compounds with an inhibition rate of 30% or more are indicated by the letter “A”)” and the IC50 (human Nav1.7; [2]) was less than 1000 nM.
In the case of `CCC1CCn2nc(C(=O)N[C@H]3COc4ccc(C#N)cc4C3)cc2O1` (single isomer, unassigned) [Example 92 (isomer B)], the “Inhibition rate (%)” value (male ICR mice) is reported as “A (Compounds with an inhibition rate of 30% or more are indicated by the letter “A”)”.
For `O=C(N[C@H]1COc2ccc(Cl)cc2C1)c1cn2c(n1)CCC(C(F)(F)F)C2` (single isomer, unassigned; isomer a) [Example 288, hydrochloride], the “Inhibition rate (%)” value (male ICR mice) was “A (Compounds with an inhibition rate of 30% or more are indicated by the letter “A”)”.
In the case of `O=C(N[C@H]1COc2ccccc2C1)c1cn2c(n1)CCC(OCC(F)(F)F)C2` (stereo partly drawn) [Example 37, N—((R)-chroman-3-yl)-6-(2,2,2-trifluoroethoxy)-5,6,7,8-tetrahydroimidazo[1,2-a]pyridine-2-carboxamide], the IC50 (human Nav1.5; [1]) is reported as no less than 3000 nM, the “Inhibition rate (%)” value (male ICR mice) is reported as “B (compounds with an inhibition rate of 20% or more and less than 30% are indicated by the letter “B”)” and the IC50 (human Nav1.7; [2]) is reported as less than 10000 nM.
In the case of `O=C(N[C@H]1COc2ccc(C(F)F)cc2C1)c1cn2c(n1)CCC(OCC(F)(F)F)C2` (stereo partly drawn) [Example 40], the IC50 (human Nav1.5; [1]) is reported as no less than 3000 nM, the “Inhibition rate (%)” value (male ICR mice) is reported as “B (compounds with an inhibition rate of 20% or more and less than 30% are indicated by the letter “B”)” and the IC50 (human Nav1.7; [2]) is reported as less than 10000 nM.
For `O=C(N[C@H]1COc2ccccc2C1)c1cn2c(n1)CNC(c1ccc(F)c(F)c1)C2` (stereo partly drawn) [Example 44], the IC50 (human Nav1.5; [1]) was no less than 3000 nM, the “Inhibition rate (%)” value (male ICR mice) was “A (Compounds with an inhibition rate of 30% or more are indicated by the letter “A”)” and the IC50 (human Nav1.7; [2]) was less than 10000 nM.
For `O=C(NCCc1cccc(C(F)(F)F)c1)c1cn2c(n1)CNC(c1ccccc1)C2` (stereo not drawn) [Example 48], the IC50 (human Nav1.5; [1]) was no less than 3000 nM, the “Inhibition rate (%)” value (male ICR mice) was “A (Compounds with an inhibition rate of 30% or more are indicated by the letter “A”)” and the IC50 (human Nav1.7; [2]) was less than 10000 nM.
With `O=C(c1cn2c(n1)CNC(c1ccccc1)C2)N1CCC(c2cccc(C(F)(F)F)c2)C1` (stereo not drawn) [Example 60] the IC50 (human Nav1.5; [1]) was no less than 3000 nM, the “Inhibition rate (%)” value (male ICR mice) was “B (compounds with an inhibition rate of 20% or more and less than 30% are indicated by the letter “B”)” and the IC50 (human Nav1.7; [2]) was less than 10000 nM.
`O=C(c1cn2c(n1)CNC(c1ccccc1)C2)N1CCOC(c2cccc(C(F)(F)F)c2)C1` (stereo not drawn) [Example 61] was tested, and the IC50 (human Nav1.5; [1]) was no less than 3000 nM, the “Inhibition rate (%)” value (male ICR mice) was “B (compounds with an inhibition rate of 20% or more and less than 30% are indicated by the letter “B”)” and the IC50 (human Nav1.7; [2]) was less than 10000 nM.
For `O=C(N[C@H]1COc2ccc(C(F)(F)F)cc2C1)c1nn2c(c1-c1ccccn1)COCC2` [Example 260, (R)-3-(pyridin-2-yl)-N-(6-(trifluoromethyl)chroman-3-yl)-6,7-dihydro-4H-pyrazolo[5,1-c][1,4]oxazine-2-carboxamide], the IC50 (human Nav1.5; [3]) was no less than 3000 nM, the “Inhibition rate (%)” value (male ICR mice) was “A (Compounds with an inhibition rate of 30% or more are indicated by the letter “A”)” and the IC50 (human Nav1.7; [4]) was less than 1000 nM.
Work on `N#Cc1ccc2c(c1)C[C@@H](NC(=O)c1cc3n(n1)CCN(Cc1ccccc1C(F)(F)F)C3)CO2` [Example 499] yielded an IC50 (human Nav1.5; [3]) of 1000 to 3000 nM and an IC50 (human Nav1.7; [4]) of less than 1000 nM.
`CC(C)(CC1CC1)N1CCn2nc(C(=O)N[C@H]3COc4ccc(C#N)cc4C3)cc2C1` [Example 502] showed an IC50 (human Nav1.5; [3]) of 1000 to 3000 nM and an IC50 (human Nav1.7; [4]) of less than 10000 nM.
`O=C(N[C@H]1COc2ccc(CC(F)F)cc2C1)c1cc2n(n1)CCN(CCC1CC1)C2` [Example 504] showed an IC50 (human Nav1.5; [3]) of 1000 to 3000 nM and an IC50 (human Nav1.7; [4]) of less than 1000 nM.
`O=C(N[C@H]1COc2ccc(C(F)(F)F)cc2C1)c1cc2n(n1)CCN(CCC(F)(F)F)C2` [Example 506] showed an IC50 (human Nav1.5; [3]) of 1000 to 3000 nM and an IC50 (human Nav1.7; [4]) of less than 1000 nM.
`O=C(N[C@H]1COc2ccc(COCC(F)(F)F)cc2C1)c1cc2n(n1)CCN(CCC(F)(F)F)C2` [Example 507] was tested, and the IC50 (human Nav1.5; [3]) was no less than 3000 nM and the IC50 (human Nav1.7; [4]) was less than 1000 nM.
In the case of `Cn1ccc(-c2c(C(=O)N[C@H]3COc4ccc(C(F)(F)F)cc4C3)nn3c2COCC3)n1` [Example 518], the IC50 (human Nav1.5; [3]) is reported as 1000 to 3000 nM and the IC50 (human Nav1.7; [4]) is reported as less than 1000 nM.
`O=C(N[C@H]1COc2ccc(C(F)(F)F)cc2C1)c1nn2c(c1C(O)c1ccccn1)COCC2` (stereo partly drawn) [Example 530] was tested, and the IC50 (human Nav1.5; [3]) was no less than 3000 nM and the IC50 (human Nav1.7; [4]) was less than 10000 nM.
In the case of `O=C(N[C@H]1COc2ccc(C(F)(F)F)cc2C1)c1nn2c(c1CCc1ccccn1)COCC2` [Example 531], the IC50 (human Nav1.5; [3]) is reported as 1000 to 3000 nM and the IC50 (human Nav1.7; [4]) is reported as less than 10000 nM.
Work on `N#CC1(COCC2CCn3nc(C(=O)N[C@H]4COc5ccc(Cl)cc5C4)cc3O2)CC1` (stereo partly drawn) [Example 538] yielded an IC50 (human Nav1.5; [3]) of no less than 3000 nM and an IC50 (human Nav1.7; [4]) of less than 1000 nM.
`CC(C)(F)C1CCn2nc(C(=O)N[C@H]3COc4ccc(C#N)cc4C3)cc2O1` (stereo partly drawn) [Example 540] was tested, and the IC50 (human Nav1.5; [3]) was 1000 to 3000 nM and the IC50 (human Nav1.7; [4]) was less than 1000 nM.
Work on `N#Cc1ccc2c(c1)C[C@@H](NC(=O)c1cc3n(n1)CC(C(F)(F)COCC1CC1)O3)CO2` (stereo partly drawn) [Example 541] yielded an IC50 (human Nav1.5; [3]) of no less than 3000 nM and an IC50 (human Nav1.7; [4]) of less than 1000 nM.
`CC1CCn2nc(C(=O)N[C@H]3COc4ccc(COCC(F)(F)F)cc4C3)cc2OC1` (stereo partly drawn) [Example 543] gave an IC50 (human Nav1.5; [3]) of no less than 3000 nM and an IC50 (human Nav1.7; [4]) of less than 10000 nM.
With `COC1c2cc(C(F)(F)F)ccc2OC[C@@H]1NC(=O)c1cc2n(n1)CCC(C(F)F)O2` (stereo partly drawn) [Example 568] the IC50 (human Nav1.5; [3]) was no less than 3000 nM and the IC50 (human Nav1.7; [4]) was less than 1000 nM.
With `O=C(N[C@H]1COc2ccc(C(F)(F)F)cc2C1O)c1cc2n(n1)CCN(CCC1CC1)C2` (stereo partly drawn) [Example 593] the IC50 (human Nav1.5; [3]) was 1000 to 3000 nM and the IC50 (human Nav1.7; [4]) was less than 10000 nM.
